According to patent publication US12565501B2, “Muscarinic acetylcholine M1 receptor antagonists” (Contineum Therapeutics, Inc., priority 2019, dated 2026):
pIC50: −log10 of the molar value.

Target: T1, human M1 receptor (Homo sapiens, UniProt P11229)
T1 sequence (P11229 1-460): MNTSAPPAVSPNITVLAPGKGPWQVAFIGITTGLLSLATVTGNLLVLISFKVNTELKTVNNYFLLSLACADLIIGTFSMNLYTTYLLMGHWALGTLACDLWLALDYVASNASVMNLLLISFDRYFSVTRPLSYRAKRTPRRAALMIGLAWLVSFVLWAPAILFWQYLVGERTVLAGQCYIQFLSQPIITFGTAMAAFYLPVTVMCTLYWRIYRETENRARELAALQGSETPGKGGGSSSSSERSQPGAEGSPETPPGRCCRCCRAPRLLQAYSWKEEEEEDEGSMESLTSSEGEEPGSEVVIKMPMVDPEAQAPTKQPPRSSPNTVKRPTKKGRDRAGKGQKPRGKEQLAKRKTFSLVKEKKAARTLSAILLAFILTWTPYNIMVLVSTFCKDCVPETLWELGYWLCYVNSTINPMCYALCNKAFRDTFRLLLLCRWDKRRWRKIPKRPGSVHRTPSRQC
Experiment: In vitro functional assay of muscarinic acetylcholine receptor activity (aequorin calcium flux, reversal of EC80 acetylcholine response)
Type: cell-based
Details: CHO-K1 cells stably expressing human M1 receptor with aequorin; acetylcholine at EC80; calcium flux (luminescence); read-out: M1 IC50
In short: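 Antagonist mode: compound (final 0.1% DMSO) and coelenterazine-loaded M1/aequorin CHO-K1 cells incubated 30 min in the dark before EC80 acetylcholine addition. Calcium flash integrated as 40 s luminescence AUC; IC50 derived from dose-response curves.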

Compound	pIC50
N#Cc1ccc(N2C3CCC2CN(C(=O)COC2(c4ccc(F)cc4)COC2)C3)nc1 [Example 240, (3-(2-((3-(4-fluorophenyl)oxetan-3-yl)oxy)acetyl)-3,8-diazabicyclo[3.2.1]octan-8-yl)nicotinonitrile]	6.00 to 7.00
N#Cc1ccc(N2C3CCC2CN(C(=O)COC2(c4ccc(F)c(F)c4)COC2)C3)nc1 [Example 241, (3-(2-((3-(3,4-difluorophenyl)oxetan-3-yl)oxy)acetyl)-3,8-diazabicyclo[3.2.1]octan-8-yl)nicotinonitrile]	5.00 to 6.00
COc1cccc(C2(OCC(=O)N3CC4CCC(C3)N4c3ccc(C#N)cn3)COC2)c1 [Example 242, (3-(2-((3-(3-methoxyphenyl)oxetan-3-yl)oxy)acetyl)-3,8-diazabicyclo[3.2.1]octan-8-yl)nicotinonitrile]	7.00 to 8.00
COc1cncc(C2(OCC(=O)N3CC4CCC(C3)N4c3ccc(C#N)cn3)COC2)c1 [Example 243, 6-(3-(2-((3-(5-methoxypyridin-3-yl)oxetan-3-yl)oxy)acetyl)-3,8-diazabicyclo [3.2.1]octan-8-yl)nicotinonitrile]	6.00 to 7.00
COc1cc(C2(OCC(=O)N3CC4CCC(C3)N4c3ccc(C#N)cn3)COC2)ccn1 [Example 244, 6-(3-(2-((3-(2-methoxypyridin-4-yl)oxetan-3-yl)oxy)acetyl)-3,8-diazabicyclo[3.2.1]octan-8-yl)nicotinonitrile]	5.00 to 6.00
N#Cc1ccc(N2C3CCC2CN(C(=O)COC2(c4cccnc4)CCC2)C3)nc1 [Example 245, 6-(3-(2-(1-(pyridin-3-yl)cyclobutoxy)acetyl)-3,8-diazabicyclo[3.2.1]octan-8-yl)nicotinonitrile]	6.00 to 7.00
N#Cc1ccc(N2C3CCC2CN(C(=O)COC2(c4ccccn4)CCC2)C3)nc1 [Example 246, 6-(3-(2-(1-(pyridin-2-yl)cyclobutoxy)acetyl)-3,8-diazabicyclo[3.2.1]octan-8-yl)nicotinonitrile]	5.00 to 6.00
N#Cc1ccc(N2C3CCC2CN(C(=O)COC2(c4ccncc4F)CCC2)C3)nc1 [Example 247, 6-(3-(2-(1-(3-fluoropyridin-4-yl)cyclobutoxy)acetyl)-3,8-diazabicyclo[3.2.1]octan-8-yl)nicotinonitrile]	> 8.00
N#Cc1ccc(N2C3CCC2CN(C(=O)COC2(c4cc(F)ccn4)CCC2)C3)nc1 [Example 248, 6-(3-(2-(1-(4-fluoropyridin-2-yl)cyclobutoxy)acetyl)-3,8-diazabicyclo[3.2.1]octan-8-yl)nicotinonitrile]	6.00 to 7.00
N#Cc1ccc(N2C3CCC2CN(C(=O)COC2(c4ccc(F)cn4)CCC2)C3)nc1 [Example 249, 6-(3-(2-(1-(5-fluoropyridin-2-yl)cyclobutoxy)acetyl)-3,8-diazabicyclo[3.2.1]octan-8-yl)nicotinonitrile]	7.00 to 8.00
N#Cc1ccc(N2C3CCC2CN(C(=O)COC2(c4cncc(F)c4)CCC2)C3)nc1 [Example 251, 6-(3-(2-(1-(5-fluoropyridin-3-yl)cyclobutoxy)acetyl)-3,8-diazabicyclo[3.2.1]octan-8-yl)nicotinonitrile]	6.00 to 7.00
COc1cc(C2(OCC(=O)N3CC4CCC(C3)N4c3ccc(C#N)cn3)CCC2)ccn1 [Example 252, 6-(3-(2-(1-(2-methoxypyridin-4-yl)cyclobutoxy)acetyl)-3,8-diazabicyclo[3.2.1]octan-8-yl)nicotinonitrile]	7.00 to 8.00
COc1cccc(C2(OCC(=O)N3CC4CCC(C3)N4c3ccc(C#N)cn3)CCC2)n1 [Example 253, 6-(3-(2-(1-(6-methoxypyridin-2-yl)cyclobutoxy)acetyl)-3,8-diazabicyclo[3.2.1]octan-8-yl)nicotinonitrile]	> 8.00
COc1ncccc1C1(OCC(=O)N2CC3CCC(C2)N3c2ccc(C#N)cn2)CCC1 [Example 254, 6-(3-(2-(1-(2-methoxypyridin-3-yl)cyclobutoxy)acetyl)-3,8-diazabicyclo[3.2.1]octan-8-yl)nicotinonitrile]	> 8.00
COc1ccnc(C2(OCC(=O)N3CC4CCC(C3)N4c3ccc(C#N)cn3)CCC2)c1 [Example 255, 6-(3-(2-(1-(4-methoxypyridin-2-yl)cyclobutoxy)acetyl)-3,8-diazabicyclo[3.2.1]octan-8-yl)nicotinonitrile]	> 8.00
COc1ccc(C2(OCC(=O)N3CC4CCC(C3)N4c3ccc(C#N)cn3)CCC2)nc1 [Example 256, 6-(3-(2-(1-(5-methoxypyridin-2-yl)cyclobutoxy)acetyl)-3,8-diazabicyclo[3.2.1]octan-8-yl)nicotinonitrile]	5.00 to 6.00
COc1ccc(C2(OCC(=O)N3CC4CCC(C3)N4c3ccc(C#N)cn3)CCC2)cn1 [Example 257, 6-(3-(2-(1-(6-methoxypyridin-3-yl)cyclobutoxy)acetyl)-3,8-diazabicyclo[3.2.1]octan-8-yl)nicotinonitrile]	5.00 to 6.00
COc1ccncc1C1(OCC(=O)N2CC3CCC(C2)N3c2ccc(C#N)cn2)CCC1 [Example 258, 6-(3-(2-(1-(4-methoxypyridin-3-yl)cyclobutoxy)acetyl)-3,8-diazabicyclo[3.2.1]octan-8-yl)nicotinonitrile]	> 8.00
CCOc1cncc(C2(OCC(=O)N3CC4CCC(C3)N4c3ccc(C#N)cn3)CCC2)c1 [Example 259, 6-(3-(2-(1-(5-ethoxypyridin-3-yl)cyclobutoxy)acetyl)-3,8-diazabicyclo[3.2.1]octan-8-yl)nicotinonitrile]	7.00 to 8.00
N#Cc1ccc(N2C3CCC2CN(C(=O)COC2(c4cncnc4)CCC2)C3)nc1 [Example 262, 6-(3-(2-(1-(pyrimidin-5-yl)cyclobutoxy)acetyl)-3,8-diazabicyclo[3.2.1]octan-8-yl)nicotinonitrile]	6.00 to 7.00
COc1cc(C2(OCC(=O)N3CC4CCC(C3)N4c3ccc(C#N)cn3)CCC2)ncn1 [Example 263, 6-(3-(2-(1-(6-methoxypyrimidin-4-yl)cyclobutoxy)acetyl)-3,8-diazabicyclo[3.2.1]octan-8-yl)nicotinonitrile]	7.00 to 8.00
COc1ccnc(C2(OCC(=O)N3CC4CCC(C3)N4c3ccc(C#N)cn3)CCC2)n1 [Example 264, 6-(3-(2-(1-(4-methoxypyrimidin-2-yl)cyclobutoxy)acetyl)-3,8-diazabicyclo[3.2.1]octan-8-yl)nicotinonitrile]	> 8.00
Cc1noc(C)c1C1(OCC(=O)N2CC3CCC(C2)N3c2ccc(C#N)cn2)CCC1 [Example 265, 6-(3-(2-(1-(3,5-dimethylisoxazol-4-yl)cyclobutoxy)acetyl)-3,8-diazabicyclo[3.2.1]octan-8-yl)nicotinonitrile]	> 8.00
Cc1csc(C2(OCC(=O)N3CC4CCC(C3)N4c3ccc(C#N)cn3)CCC2)n1 [Example 266, 6-(3-(2-(1-(4-methylthiazol-2-yl)cyclobutoxy)acetyl)-3,8-diazabicyclo[3.2.1]octan-8-yl)nicotinonitrile]	6.00 to 7.00
COc1cc(C2(OCC(=O)N3CC4CCC(C3)N4c3ccc(C#N)cn3)CCCC2)ccn1 [Example 267, 6-(3-(2-((1-(2-methoxypyridin-4-yl)cyclopentyl)oxy)acetyl)-3,8-diazabicyclo[3.2.1]octan-8-yl)nicotinonitrile]	7.00 to 8.00
N#Cc1ccc(N2C3CCC2CN(C(=O)COC2(c4cncc(F)c4)CCCC2)C3)nc1 [Example 268, 6-(3-(2-((1-(5-fluoropyridin-3-yl)cyclopentyl)oxy)acetyl)-3,8-diazabicyclo[3.2.1]octan-8-yl)nicotinonitrile]	7.00 to 8.00
